US11051515B2, “3-acyl-benzamides and their use as herbicides” (Bayer Aktiengesellschaft, priority 2017, dated 2021)

How the values were obtained:
PHBPU [1] = assay: Post-emergence action against PHBPU; format: in vivo, Pharbitis purpurea; settings: post-emergence, dosage 80 g/ha
Procedure, shortened: (§1)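 Post-emergence foliar spray on greenhouse plants at the one-leaf stage, using wettable-powder or emulsion-concentrate formulations in water (600 to […], plus 0.2% wetting agent). Damage scored by eye roughly 3 weeks later against untreated plants: 0% = like control, 100% = dead.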

ECHCG [2] = assay: Post-emergence action against ECHCG; format: in vivo, Echinochloa crus-galli; settings: post-emergence, dosage 80 g/ha, visual assessment about 3 weeks after treatment vs untreated controls
Procedure, shortened: as §1

ECHCG [3] = assay: Pre-emergence action against ECHCG; format: in vivo, Echinochloa crus-galli
Procedure, shortened: (§2)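 Seeds sown in sandy loam in wood-fiber pots and covered with soil. Greenhouse growth; visual damage scored after 3 weeks versus untreated controls (100% = dead, 0% = like control).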

VERPE [4] = assay: Post-emergence action against VERPE; format: in vivo, Veronica persica; settings: dosage 80 g/ha
Procedure, shortened: as §1

PHBPU [5] = assay: Pre-emergence action against PHBPU; format: in vivo, Pharbitis purpurea; settings: Dosage 320 g/ha, pre-emergence
Procedure, shortened: as §2

AVEFA [6] = assay: Pre-emergence action against AVEFA; format: in vivo, Avena fatua; settings: dosage 320 g/ha, scored visually after 3 weeks vs untreated controls
Procedure, shortened: as §2

CYPES [7] = assay: Pre-emergence action against CYPES; format: in vivo, Cyperus esculentus; settings: pre-emergence, dosage 320 g/ha, scored visually after 3 weeks vs untreated controls
Procedure, shortened: as §2

VIOTR [8] = assay: Post-emergence action against VIOTR; format: in vivo, Viola tricolor; settings: for Herbicidal efficacy against VIOTR: Table V17, post-emergence, 5 g of a.i./ha
Procedure, shortened: as §1

AMARE [9] = assay: Post-emergence action against AMARE; format: in vivo, Amaranthus retroflexus; settings: post-emergence, dosage 80 g/ha, visual assessment about 3 weeks after treatment vs untreated controls
Procedure, shortened: as §1

MATIN [10] = assay: Pre-emergence action against MATIN; format: in vivo, Matricaria inodora; settings: for Herbicidal efficacy against MATIN: 20 g of a.i./ha
Procedure, shortened: as §2

SETVI [11] = assay: Pre-emergence action against SETVI; format: in vivo, Setaria viridis; settings: pre-emergence, dosage 320 g/ha, scored visually after 3 weeks vs untreated controls
Procedure, shortened: as §2

MATIN [12] = assay: Post-emergence action against MATIN; format: in vivo, Matricaria inodora; settings: for Herbicidal efficacy against MATIN: Table V17, post-emergence, 5 g of a.i./ha
Procedure, shortened: as §1

VERPE [13] = assay: Pre-emergence action against VERPE; format: in vivo, Veronica persica
Procedure, shortened: as §2

ALOMY [14] = assay: Post-emergence action against ALOMY; format: in vivo, Alopecurus myosuroides
Experimental: Seeds of monocotyledonous and dicotyledonous weed and crop plants are laid out in sandy loam soil in wood-fiber pots, covered with soil and cultivated in a greenhouse under good growth conditions. 2 to 3 weeks after sowing, the test plants are treated at the one-leaf stage. The compounds of the invention, formulated in the form of wettable powders (WP) or as emulsion concentrates (EC), are then sprayed onto the green parts of the plants in the form of an aqueous suspension or emulsion at a water application rate equating to […], with addition of 0.2% wetting agent. After the test plants have been left to stand in the greenhouse under optimal growth conditions for about 3 weeks, the action of the preparations is assessed visually in comparison to untreated controls (herbicidal action in percent (%): 100% activity=the plants have died, 0% activity=like control plants). […] At the same time, inventive compounds leave Gramineae crops such as barley, wheat, rye, millet/Sorghum, corn or rice virtually undamaged when applied post-emergence, even at high active ingredient dosages. In addition, some substances are also harmless to dicotyledonous crops such as soya, cotton, oilseed rape, sugar beet or potatoes. Some of the compounds according to the invention have high selectivity and are therefore suitable for controlling unwanted vegetation in agricultural crops by the post-emergence method. The data of Tables B18 to B34 below illustrate, in an exemplary manner, the […] herbicidal action of the compounds according to the invention, the herbicidal activity being stated in percent.

ABUTH [15] = assay: Pre-emergence action against ABUTH; format: in vivo, Abutilon theophrasti
Procedure, shortened: as §2

STEME [16] = assay: Post-emergence action against STEME; format: in vivo, Stellaria media; settings: post-emergence, dosage 80 g/ha
Procedure, shortened: as §1

AVEFA [17] = assay: Post-emergence action against AVEFA; format: in vivo, Avena fatua; settings: post-emergence, dosage 80 g/ha, visual assessment about 3 weeks after treatment vs untreated controls
Procedure, shortened: as §1

CYPES [18] = assay: Post-emergence action against CYPES; format: in vivo, Cyperus esculentus
Procedure, shortened: as §1

POLCO [19] = assay: Post-emergence action against POLCO; format: in vivo, Polygonum convolvulus
Procedure, shortened: as §1

VIOTR [20] = assay: Pre-emergence action against VIOTR; format: in vivo, Viola tricolor; settings: for Herbicidal efficacy against VIOTR: 20 g of a.i./ha
Procedure, shortened: as §2

ALOMY [21] = assay: Pre-emergence action against ALOMY; format: in vivo, Alopecurus myosuroides; settings: dosage 320 g/ha; pre-emergence; scored visually after 3 weeks vs untreated controls; 100% = plants have died, 0% = like control plants
Procedure, shortened: as §2

AMARE [22] = assay: Pre-emergence action against AMARE; format: in vivo, Amaranthus retroflexus; settings: for Herbicidal efficacy against AMARE: 20 g of a.i./ha
Procedure, shortened: as §2

ABUTH [23] = assay: Post-emergence action against ABUTH; format: in vivo, Abutilon theophrasti
Procedure, shortened: as §1

POLCO [24] = assay: Pre-emergence action against POLCO; format: in vivo, Polygonum convolvulus; settings: Dosage 320 g/ha, pre-emergence
Procedure, shortened: as §2

SETVI [25] = assay: Post-emergence action against SETVI; format: in vivo, Setaria viridis; settings: post-emergence, dosage 80 g/ha, visual assessment about 3 weeks after treatment vs untreated controls
Procedure, shortened: as §1

STEME [26] = assay: Pre-emergence action against STEME; format: in vivo, Stellaria media
Procedure, shortened: as §2

[27] = pre-emergence, dosage 320 g/ha, scored visually after 3 weeks vs untreated controls
[28] = post-emergence, dosage 80 g/ha, visual assessment about 3 weeks after treatment vs untreated controls
[29] = Table V20, post-emergence, 80 g of a.i./ha
[30] = Table V8, pre-emergence, 20 g of a.i./ha

CCn1nnnc1NC(=O)c1ccc(S(C)(=O)=O)c(C(=O)C2CC2)c1C [2-9]
Post-emergence action against PHBPU (PHBPU [1]): 100 | Post-emergence action against ECHCG (herbicidal action in percent) (ECHCG [2]): 90% | Pre-emergence action against ECHCG (herbicidal activity) (ECHCG [3]; [27]): 100% | Post-emergence action against VERPE (VERPE [4]): 100 | Pre-emergence action against PHBPU (PHBPU [5]): 90% | Pre-emergence action against AVEFA (herbicidal activity) (AVEFA [6]): 100% | Pre-emergence action against CYPES (herbicidal activity) (CYPES [7]): 90% | Herbicidal efficacy against VIOTR (VIOTR [8]): 100 | Post-emergence action against VIOTR (VIOTR [8]; post-emergence, dosage 80 g/ha): 100 | Post-emergence action against AMARE (herbicidal action in percent) (AMARE [9]): 100% | Pre-emergence action against MATIN (MATIN [10]; Dosage 320 g/ha, pre-emergence): 100% | Herbicidal efficacy against MATIN (MATIN [10]; Table V7, pre-emergence): 80 | SETVI (Table B8, pre-emergence herbicidal activity) (SETVI [11]): 100% | Herbicidal efficacy against MATIN (MATIN [12]): 90 | Post-emergence action against MATIN (herbicidal action in percent) (MATIN [12]; [28]): 100% | Pre-emergence action against VERPE (VERPE [13]; Dosage 320 g/ha, pre-emergence): 100% | Post-emergence action against ALOMY (ALOMY [14]; Dosage 80 g/ha, post-emergence): 90% | Herbicidal efficacy against ALOMY (ALOMY [14]; [29]): 90 | Herbicidal efficacy against ABUTH (ABUTH [15]; Table V7, pre-emergence, 20 g of a.i./ha): 100 | Pre-emergence action against ABUTH (herbicidal activity) (ABUTH [15]; [27]): 100% | Post-emergence action against STEME (STEME [16]): 100 | Post-emergence action against AVEFA (herbicidal action in percent) (AVEFA [17]): 100% | Herbicidal efficacy against CYPES (CYPES [18]; [29]): 90 | Post-emergence action against CYPES (herbicidal action in percent) (CYPES [18]; [28]): 90% | Herbicidal efficacy against POLCO (POLCO [19]; [29]): 100 | Post-emergence action against POLCO (POLCO [19]; post-emergence, dosage 80 g/ha): 100 | Pre-emergence action against VIOTR (VIOTR [20]; Dosage 320 g/ha, pre-emergence): 100% | Herbicidal efficacy against VIOTR (VIOTR [20]; Table V7, pre-emergence): 90 | Herbicidal efficacy against VIOTR (VIOTR [20]; Table V13, pre-emergence): 90 | Pre-emergence action against ALOMY (herbicidal activity in percent) (ALOMY [21]): 90% | Herbicidal efficacy against AMARE (AMARE [22]; Table V13, pre-emergence): 100 | Pre-emergence action against AMARE (herbicidal activity) (AMARE [22]; [27]): 100% | Herbicidal efficacy against ABUTH (ABUTH [23]; [29]): 90 | Post-emergence action against ABUTH (herbicidal action in percent) (ABUTH [23]; [28]): 90% | Pre-emergence action against POLCO (POLCO [24]): 80% | Post-emergence action against SETVI (herbicidal action in percent) (SETVI [25]): 90%

CC(=O)c1c(S(C)(=O)=O)ccc(C(=O)Nc2nnnn2C)c1C [1-7]
pest or weed control at 80 g/ha (PHBPU [1]; Ipomoea purpurea, 504 h): 100% | pest or weed control at 80 g/ha (ECHCG [2]; Echinochloa crus-galli, 504 h, read-out: Post-emergence action against ECHCG (herbicidal action in percent)): 90% | pest or weed control at 320 g/ha (ECHCG [3]; Echinochloa crus-galli, 504 h, pre-emergence, dosage 320 g/ha, scored visually after 3 weeks vs untreated controls, read-out: Pre-emergence action against ECHCG (herbicidal activity)): 100% | Herbicidal efficacy against ECHCG (ECHCG [3]; [30]): 70 | pest or weed control at 80 g/ha (VERPE [4]; Veronica persica, 504 h): 100% | pest or weed control at 320 g/ha (CYPES [7]; Cyperus esculentus, 504 h, read-out: Pre-emergence action against CYPES (herbicidal activity)): 100% | Herbicidal efficacy against VIOTR (VIOTR [8]): 100 | pest or weed control at 80 g/ha (VIOTR [8]; Viola tricolor, 504 h, post-emergence, dosage 80 g/ha): 100% | pest or weed control at 80 g/ha (AMARE [9]; Amaranthus retroflexus, 504 h, read-out: Post-emergence action against AMARE (herbicidal action in percent)): 100% | Herbicidal efficacy against MATIN (MATIN [10]; Table V5, pre-emergence): 90 | Herbicidal efficacy against MATIN (MATIN [10]; Table V8, pre-emergence): 90 | pest or weed control at 320 g/ha (MATIN [10]; Tripleurospermum inodorum, 504 h, Dosage 320 g/ha, pre-emergence): 100% | pest or weed control at 320 g/ha (STEME [26]; Stellaria media, 504 h, Dosage 320 g/ha, pre-emergence): 90% | Herbicidal efficacy against STEME (STEME [26]; [30]): 90 | pest or weed control at 320 g/ha (SETVI [11]; Setaria viridis, 504 h, read-out: SETVI (Table B8, pre-emergence herbicidal activity)): 100% | Herbicidal efficacy against MATIN (MATIN [12]): 100 | pest or weed control at 80 g/ha (MATIN [12]; Tripleurospermum inodorum, 504 h, post-emergence, dosage 80 g/ha, visual assessment about 3 weeks after treatment vs untreated controls, read-out: Post-emergence action against MATIN (herbicidal action in percent)): 100% | Herbicidal efficacy against VERPE (VERPE [13]; [30]): 100 | pest or weed control at 320 g/ha (VERPE [13]; Veronica persica, 504 h, Dosage 320 g/ha, pre-emergence): 100% | pest or weed control at 80 g/ha (ALOMY [14]; Alopecurus myosuroides, 504 h, Dosage 80 g/ha, post-emergence): 80% | pest or weed control at 320 g/ha (ABUTH [15]; Abutilon theophrasti, 504 h, pre-emergence, dosage 320 g/ha, scored visually after 3 weeks vs untreated controls, read-out: Pre-emergence action against ABUTH (herbicidal activity)): 100% | pest or weed control at 80 g/ha (STEME [16]; Stellaria media, 504 h): 100% | pest or weed control at 80 g/ha (AVEFA [17]; Avena fatua, 504 h, read-out: Post-emergence action against AVEFA (herbicidal action in percent)): 80% | pest or weed control at 80 g/ha (POLCO [19]; Fallopia convolvulus, 504 h, post-emergence, dosage 80 g/ha): 80% | Herbicidal efficacy against VIOTR (VIOTR [20]; Table V5, pre-emergence): 100 | Herbicidal efficacy against VIOTR (VIOTR [20]; Table V8, pre-emergence): 100 | pest or weed control at 320 g/ha (VIOTR [20]; Viola tricolor, 504 h, Dosage 320 g/ha, pre-emergence): 100% | pest or weed control at 320 g/ha (AMARE [22]; Amaranthus retroflexus, 504 h, pre-emergence, dosage 320 g/ha, scored visually after 3 weeks vs untreated controls, read-out: Pre-emergence action against AMARE (herbicidal activity)): 100% | Herbicidal efficacy against AMARE (AMARE [22]; Table V8, pre-emergence): 100 | pest or weed control at 80 g/ha (ABUTH [23]; Abutilon theophrasti, 504 h, post-emergence, dosage 80 g/ha, visual assessment about 3 weeks after treatment vs untreated controls, read-out: Post-emergence action against ABUTH (herbicidal action in percent)): 90% | pest or weed control at 320 g/ha (POLCO [24]; Fallopia convolvulus, 504 h): 80% | pest or weed control at 80 g/ha (SETVI [25]; Setaria viridis, 504 h, read-out: Post-emergence action against SETVI (herbicidal action in percent)): 90%
